# Source: patent US10988477B2 (Merck Patent GmbH, priority 2018, dated 2021)
# Tests used:
# GCN2 kinase = GCN2 kinase (Homo sapiens, UniProt Q9P2K8); assay: GCN2 enzyme inhibition assay (Transcreener ADP2 fluorescence polarization); format: biochemical; conditions: compounds of Formula II; 280 μM ATP, 4 nM GCN2 kinase
# Method in brief: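 4 nM GCN2 + 200 μM (RS)7 + compound (0–8 μM), 10 min preinc.; start with ATP (280 μM final); 1 h, 25 °C; pH 7.5 Tris/NaCl/MgCl2/DTT; ADP FP readout; IC50, Ki(app) via tight-binding fit.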
# [1] = molecular target: intracellular GCN2 (phosphorylation of the GCN2 substrate eIF2α) (Homo sapiens, UniProt Q9P2K8); assay: GCN2 cellular inhibition assay (AlphaScreen SureFire P-eIF2α Ser51, borrelidin-treated U2OS cells); format: cell-based; conditions: compounds of Formula II; biomarker assay, phosphorylated eIF2α Ser51 in borrelidin-treated U2OS cells
# Method in brief: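 Borrelidin at 10 μM is added to U2OS cells immediately after compound (4-fold dilution series, 40 μM top final) for 1 h at 37 °C. Phosphorylated eIF2α Ser51 in lysates is quantified by AlphaScreen and expressed as percent inhibition against borrelidin-stimulated controls.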
# Sequence of intracellular GCN2 (phosphorylation of the GCN2 substrate eIF2α) (Q9P2K8 whole entry): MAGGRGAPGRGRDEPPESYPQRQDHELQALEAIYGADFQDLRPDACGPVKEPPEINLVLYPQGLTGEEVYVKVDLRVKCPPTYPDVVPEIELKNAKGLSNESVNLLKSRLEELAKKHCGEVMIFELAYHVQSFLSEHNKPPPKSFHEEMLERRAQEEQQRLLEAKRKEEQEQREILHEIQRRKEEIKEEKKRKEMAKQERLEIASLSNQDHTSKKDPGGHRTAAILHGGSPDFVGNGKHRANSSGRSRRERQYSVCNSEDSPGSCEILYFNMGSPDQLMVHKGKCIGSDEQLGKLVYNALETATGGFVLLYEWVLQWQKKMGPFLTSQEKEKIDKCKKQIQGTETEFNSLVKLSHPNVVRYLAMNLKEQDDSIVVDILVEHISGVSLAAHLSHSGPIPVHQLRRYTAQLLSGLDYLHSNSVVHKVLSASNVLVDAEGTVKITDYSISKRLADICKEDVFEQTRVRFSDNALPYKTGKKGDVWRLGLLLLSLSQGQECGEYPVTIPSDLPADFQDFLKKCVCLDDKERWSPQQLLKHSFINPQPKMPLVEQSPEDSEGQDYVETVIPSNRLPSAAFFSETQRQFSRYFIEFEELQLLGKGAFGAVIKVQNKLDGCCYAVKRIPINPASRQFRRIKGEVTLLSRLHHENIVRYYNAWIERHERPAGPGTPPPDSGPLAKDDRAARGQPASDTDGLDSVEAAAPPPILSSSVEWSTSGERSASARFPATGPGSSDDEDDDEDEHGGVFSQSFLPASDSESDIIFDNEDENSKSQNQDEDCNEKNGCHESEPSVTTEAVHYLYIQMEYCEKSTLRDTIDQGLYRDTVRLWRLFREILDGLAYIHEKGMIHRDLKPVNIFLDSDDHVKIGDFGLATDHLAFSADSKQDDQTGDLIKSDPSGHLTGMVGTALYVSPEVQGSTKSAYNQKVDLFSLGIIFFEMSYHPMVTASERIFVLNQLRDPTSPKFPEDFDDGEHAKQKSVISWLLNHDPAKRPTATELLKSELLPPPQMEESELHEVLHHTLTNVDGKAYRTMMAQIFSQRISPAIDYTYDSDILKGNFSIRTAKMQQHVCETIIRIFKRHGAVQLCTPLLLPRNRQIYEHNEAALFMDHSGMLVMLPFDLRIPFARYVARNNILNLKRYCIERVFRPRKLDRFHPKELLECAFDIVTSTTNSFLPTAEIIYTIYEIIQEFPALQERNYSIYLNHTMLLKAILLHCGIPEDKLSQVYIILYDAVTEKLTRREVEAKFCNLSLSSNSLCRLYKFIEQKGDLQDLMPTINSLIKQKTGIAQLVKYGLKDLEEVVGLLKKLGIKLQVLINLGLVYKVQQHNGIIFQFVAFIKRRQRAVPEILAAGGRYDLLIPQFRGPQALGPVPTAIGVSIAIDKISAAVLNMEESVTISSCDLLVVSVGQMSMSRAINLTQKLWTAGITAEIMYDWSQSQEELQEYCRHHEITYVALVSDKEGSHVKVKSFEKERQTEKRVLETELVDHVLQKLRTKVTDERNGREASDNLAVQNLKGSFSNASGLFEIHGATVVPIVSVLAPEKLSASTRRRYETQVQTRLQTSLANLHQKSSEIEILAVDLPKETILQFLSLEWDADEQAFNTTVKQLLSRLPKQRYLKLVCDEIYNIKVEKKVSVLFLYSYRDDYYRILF
# Sequence of GCN2 kinase (Q9P2K8 whole entry): as above
Compound,Ki (GCN2 kinase) [nM],IC50 [1] [nM]
"CS(=O)(=O)NCC1COCCN(c2cc(-c3cnc4ccc(C(F)F)nn34)ncn2)C1 (stereo not shown) [II-481, N-((4-(6-(6-(Difluoromethyl)imidazo[1,2-b]pyridazin-3-yl)pyrimidin-4-yl)-1,4-oxazepan-6-yl)methyl)methanesulfonamide]",10 to 1000,500 to 5000
"NC(=O)CC1CN(c2cc(-c3cnc4ccc(C(F)F)nn34)ncn2)CCN1 (stereo not shown) [II-483, 2-(4-(6-(6-(Difluoromethyl)imidazo[1,2-b]pyridazin-3-yl)pyrimidin-4-yl)piperazin-2-yl)acetamide]",10 to 1000,> 5000
"CC1C(CS(C)(=N)=O)CCCN1c1cc(-c2cnc3ccc(C(F)F)nn23)ncn1 (stereo not shown) [II-486, ((1-(6-(6-(Difluoromethyl)imidazo[1,2-b]pyridazin-3-yl)pyrimidin-4-yl)-2-methylpiperidin-3-yl)methyl)(imino)(methyl)-λ^6-sulfanone]",10 to 1000,500 to 5000
"CC1C(CS(C)(=N)=O)CCCN1c1cc(-c2cnc3ccc(C(F)F)nn23)ncn1 (stereo not shown) [II-487, ((1-(6-(6-(Difluoromethyl)imidazo[1,2-b]pyridazin-3-yl)pyrimidin-4-yl)-2-methylpiperidin-3-yl)methyl)(imino)(methyl)-λ^6-sulfanone]",10 to 1000,< 500
"CC1C(CS(C)(=N)=O)CCCN1c1cc(-c2cnc3ccc(C(F)F)nn23)ncn1 (stereo not shown) [II-488, ((1-(6-(6-(Difluoromethyl)imidazo[1,2-b]pyridazin-3-yl)pyrimidin-4-yl)-2-methylpiperidin-3-yl)methyl)(imino)(methyl)-λ^6-sulfanone]",10 to 1000,> 5000
"CN1CCN(c2cc(-c3cnc4ccc(C(F)F)nn34)ncn2)CC1CC(N)=O (stereo not shown) [II-492, 2-(4-(6-(6-(Difluoromethyl)imidazo[1,2-b]pyridazin-3-yl)pyrimidin-4-yl)-1-methylpiperazin-2-yl)acetamide]",10 to 1000,500 to 5000
"CS(=O)(=O)CCC1CCCN(c2cc(-c3cnc4ccc(C(F)F)nn34)ncn2)C1 (stereo not shown) [II-493, 6-(Difluoromethyl)-3-(6-(3-(2-(methylsulfonyl)ethyl)piperidin-1-yl)pyrimidin-4-yl)imidazo[1,2-b]pyridazine]",10 to 1000,500 to 5000
"OCCC1CN(c2cc(-c3cnc4ccc(C(F)F)nn34)ncn2)CCN1 (stereo not shown) [II-496, 2-(4-(6-(6-(Difluoromethyl)imidazo[1,2-b]pyridazin-3-yl)pyrimidin-4-yl)piperazin-2-yl)ethan-1-ol]",10 to 1000,> 5000
"OCCC1CCCN(c2cc(-c3cnc4ccc(C(F)F)nn34)ncn2)C1 (stereo not shown) [II-497, 2-(1-(6-(6-(Difluoromethyl)imidazo[1,2-b]pyridazin-3-yl)pyrimidin-4-yl)piperidin-3-yl)ethan-1-ol]",10 to 1000,500 to 5000
"OCCC1CN(c2cc(-c3cnc4ccc(C(F)F)nn34)ncn2)CCO1 (stereo not shown) [II-498, 2-(4-(6-(6-(Difluoromethyl)imidazo[1,2-b]pyridazin-3-yl)pyrimidin-4-yl)morpholin-2-yl)ethan-1-ol]",10 to 1000,> 5000
"OCCC1CCCN(c2cc(-c3cnc4ccc(C(F)(F)F)nn34)ncn2)C1 (stereo not shown) [II-499, 2-(1-(6-(6-(Trifluoromethyl)imidazo[1,2-b]pyridazin-3-yl)pyrimidin-4-yl)piperidin-3-yl)ethan-1-ol]",10 to 1000,500 to 5000
"OCCC1CN(c2cc(-c3cnc4ccc(C(F)(F)F)nn34)ncn2)CCO1 (stereo not shown) [II-500, 2-(4-(6-(6-(Trifluoromethyl)imidazo[1,2-b]pyridazin-3-yl)pyrimidin-4-yl)morpholin-2-yl)ethan-1-ol]",10 to 1000,> 5000
"O=C(O)[C@H]1CCCN(c2cc(-c3cnc4ccc(C(F)(F)F)nn34)ncn2)C1 [II-504, (S)-1-(6-(6-(Trifluoromethyl)imidazo[1,2-b]pyridazin-3-yl)pyrimidin-4-yl)piperidine-3-carboxylic acid]",10 to 1000,> 5000
"O=C(O)[C@H]1CCCN(c2cc(-c3cnc4ccc(C(F)F)nn34)ncn2)C1 [II-505, (S)-1-(6-(6-(Difluoromethyl)imidazo[1,2-b]pyridazin-3-yl)pyrimidin-4-yl)piperidine-3-carboxylic acid]",10 to 1000,> 5000
"O=C(O)[C@@H]1CCCN(c2cc(-c3cnc4ccc(C(F)(F)F)nn34)ncn2)C1 [II-506, (R)-1-(6-(6-(Trifluoromethyl)imidazo[1,2-b]pyridazin-3-yl)pyrimidin-4-yl)piperidine-3-carboxylic acid]",10 to 1000,> 5000

# Next, values leading:
Ki (GCN2 kinase) [nM],IC50 [1] [nM],Compound
< 10,< 500,"CC1C(CNS(C)(=O)=O)C(F)(F)C(C)CN1c1cc(-c2cnc3ccc(C(F)F)nn23)ncn1 (stereo not shown) [II-462, N-((1-(6-(6-(Difluoromethyl)imidazo[1,2-b]pyridazin-3-yl)pyrimidin-4-yl)-4,4-difluoro-2,5-dimethylpiperidin-3-yl)methyl)methanesulfonamide]"
< 10,< 500,"CC1C(CNS(C)(=O)=O)N(C2CC2)CCN1c1cc(-c2cnc3ccc(C(F)F)nn23)ncn1 (stereo not shown) [II-463, N-((1-Cyclopropyl-4-(6-(6-(difluoromethyl)imidazo[1,2-b]pyridazin-3-yl)pyrimidin-4-yl)-3-methylpiperazin-2-yl)methyl)methanesulfonamide]"
10 to 1000,500 to 5000,"CC(NS(C)(=O)=O)C1CN(c2cc(-c3cnc4ccc(C(F)F)nn34)ncn2)CCN1 (stereo not shown) [II-465, N-(1-(4-(6-(6-(Difluoromethyl)imidazo[1,2-b]pyridazin-3-yl)pyrimidin-4-yl)piperazin-2-yl)ethyl)methanesulfonamide]"
< 10,< 500,"CC1C(CNS(C)(=O)=O)NCCN1c1cc(-c2cnc3ccc(C(F)(F)F)nn23)ncn1 (stereo not shown) [II-466, N-((3-Methyl-4-(6-(6-(trifluoromethyl)imidazo[1,2-b]pyridazin-3-yl)pyrimidin-4-yl)piperazin-2-yl)methyl)methanesulfonamide]"
10 to 1000,> 5000,"CC(NS(C)(=O)=O)C1CN(c2cc(-c3cnc4ccc(C(F)F)nn34)ncn2)CCN1C (stereo not shown) [II-473, N-(1-(4-(6-(6-(Difluoromethyl)imidazo[1,2-b]pyridazin-3-yl)pyrimidin-4-yl)-1-methylpiperazin-2-yl)ethyl)methanesulfonamide]"
10 to 1000,500 to 5000,"CC(NS(C)(=O)=O)C1CN(c2cc(-c3cnc4ccc(C(F)F)nn34)ncn2)CCN1C (stereo not shown) [II-474, N-(1-(4-(6-(6-(Difluoromethyl)imidazo[1,2-b]pyridazin-3-yl)pyrimidin-4-yl)-1-methylpiperazin-2-yl)ethyl)methanesulfonamide]"
10 to 1000,< 500,"CC1C(CNS(C)(=O)=O)C(F)(F)C(C)CN1c1cc(-c2cnc3ccc(C(F)F)nn23)ncn1 (stereo not shown) [II-475, N-((1-(6-(6-(Difluoromethyl)imidazo[1,2-b]pyridazin-3-yl)pyrimidin-4-yl)-4,4-difluoro-2,5-dimethylpiperidin-3-yl)methyl)methanesulfonamide]"
10 to 1000,500 to 5000,"CC1C(CNS(C)(=O)=O)C(F)(F)C(C)CN1c1cc(-c2cnc3ccc(C(F)F)nn23)ncn1 (stereo not shown) [II-476, N-((1-(6-(6-(Difluoromethyl)imidazo[1,2-b]pyridazin-3-yl)pyrimidin-4-yl)-4,4-difluoro-2,5-dimethylpiperidin-3-yl)methyl)methanesulfonamide]"
10 to 1000,500 to 5000,"CC1C(C(N)=O)NCCN1c1cc(-c2cnc3ccc(C(F)F)nn23)ncn1 (stereo not shown) [II-477, 4-(6-(6-(Difluoromethyl)imidazo[1,2-b]pyridazin-3-yl)pyrimidin-4-yl)-3-methylpiperazine-2-carboxamide]"
10 to 1000,> 5000,"CNS(=O)(=O)C1CCCN(c2cc(-c3cnc4ccc(C(F)F)nn34)ncn2)C1 (stereo not shown) [II-480, 1-(6-(6-(Difluoromethyl)imidazo[1,2-b]pyridazin-3-yl)pyrimidin-4-yl)-N-methylpiperidine-3-sulfonamide]"
< 10,< 500,"CCN1CCN(c2cc(-c3cnc4ccc(C(F)F)nn34)ncn2)C(C)C1CNS(C)(=O)=O (stereo not shown) [II-482, N-((4-(6-(6-(difluoromethyl)imidazo[12-b]pyridazin-3-yl)pyrimidin-4-yl)-1-ethyl-3-methylpiperazin-2-yl)methyl)methanesulfonamide]"
< 10,< 500,"C[C@H]1[C@@H](C[S@@](C)(=N)=O)CCCN1c1cc(-c2cnc3ccc(C(F)F)nn23)ncn1 [II-485, (S)-(((2S,3S)-1-(6-(6-(Difluoromethyl)imidazo[1,2-b]pyridazin-3-yl)pyrimidin-4-yl)-2-methylpiperidin-3-yl)methyl)(imino)(methyl)-λ^6-sulfanone]"
< 10,< 500,"CC1CN(c2cc(-c3cnc4ccc(C(F)F)nn34)ncn2)C(C)C(CNS(C)(=O)=O)=C1F (stereo not shown) [II-491, N-((1-(6-(6-(Difluoromethyl)imidazo[1,2-b]pyridazin-3-yl)pyrimidin-4-yl)-4-fluoro-2,5-dimethyl-1,2,5,6-tetrahydropyridin-3-yl)methyl)methanesulfonamide]"
< 10,< 500,"CC1C(CNS(C)(=O)=O)N(CC2CC2)CCN1c1cc(-c2cnc3ccc(C(F)F)nn23)ncn1 (stereo not shown) [II-495, N-((1-(Cyclopropylmethyl)-4-(6-(6-(difluoromethyl)imidazo[1,2-b]pyridazin-3-yl)pyrimidin-4-yl)-3-methylpiperazin-2-yl)methyl)methanesulfonamide]"
